Assay results published in US5514694A, “Peptidyl ketoamides” (Georgia Tech Research Corp, priority 1993, dated 1996).
Read-outs that look alike come from different tables or passages of the source.

What was measured:
Type in all cases: biochemical
[1] = target: T1, Human leukocyte cathepsin G (Homo sapiens, UniProt P08311); assay: Cathepsin G inhibition, Suc-Val-Pro-Phe-NA hydrolysis; conditions: for IC50: Table 4, Z-Leu--AA--CONH-R; for Ki: Table 4, in brackets under the IC50, read-out: KI Cat G
T1 sequence (P08311 21-255): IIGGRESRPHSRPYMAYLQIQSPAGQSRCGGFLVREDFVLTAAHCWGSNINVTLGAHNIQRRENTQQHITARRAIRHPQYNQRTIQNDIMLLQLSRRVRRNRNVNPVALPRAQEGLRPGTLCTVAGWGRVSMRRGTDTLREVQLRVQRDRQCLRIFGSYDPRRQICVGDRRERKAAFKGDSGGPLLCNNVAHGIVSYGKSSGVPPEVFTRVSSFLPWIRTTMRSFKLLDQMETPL
Description: (§1) Peptide α-ketoamides were assayed as reversible enzyme inhibitors. Various concentrations of inhibitors in Me2 SO were added to the assay mixture which contained buffer and substrate. The reaction was started by the addition of the enzyme and the hydrolysis rates were followed spectrophotometrically or fluorimetrically.
(§2) A 0.1M Hepes, 0.5M NaCl, pH 7.5 buffer was utilized for human leukocyte elastase (HLE), porcine pancreatic elastase (PPE), chymotrypsin and cathepsin G. A 0.1 Hepes, 0.01 M CaCl2, pH 7.5 buffer was utilized for trypsin, plasmin, and coagulation enzymes. A 50 mM Tris.HCl, 2 mM EDTA, 5 mM cysteine, pH 7.5 was used as a buffer for papain. A 88 mM KH2 PO4, 12 mM Na2 HPO4, 1.33 mM EDTA, 2.7 mM cysteine, pH 6.0 solution was used as a buffer for cathepsin B. A 20 mM Hepes, 10 mM CaCl2, 10 mM mercatoethanol, pH 7.2 buffer was utilized for calpain I and calpain II.
(§3) HLE and PPE were assayed with MeO-Suc-Ala-Ala-Pro-Val-NA and Suc-Ala-Ala-Ala-NA, respectively Nakajima et al., J. Biol. Chem. 254, 4027-4032 (1979); incorporated herein by reference!. Human leukocyte cathepsin G and chymotrypsin Aα were assayed with Suc-Val-Pro-Phe-NA Tanaka et al., Biochemistry 24, 2040-2047 (1985); incorporated herein by reference!. The hydrolysis of peptide 4-nitroanilides was measured at 410 nm ε410 =8800 M^-1 cm^-1; Erlanger et al., Arch. Biochem. Biophys. 95, pp 271-278 (1961); incorporated herein by reference!. Trypsin, thrombin, human plasma kallikrein, porcine pancreatic kallikrein, human factor XIa, and human plasmin were assayed with Z-Arg-SBzl or Z-Gly-Arg-SBu-i McRae et al., Biochemistry 20, 7196-7206 (1981); incorporated herein by reference!. All peptide thioester hydrolysis rates were measured with assay mixtures containing 4,4'-dithiodipyridine ε324 =19800 M^-1 cm^-1; Grasetti & Murray, Arch. Biochem. Biophys. 119, 41-49 (1967); incorporated herein by reference!.

[2] = target: T2, human leukocyte elastase (HLE) (Homo sapiens, UniProt P08246); assay: HLE inhibition, MeO-Suc-Ala-Ala-Pro-Val-NA hydrolysis; conditions: for IC50: Table 4, Z-Leu--AA--CONH-R; for Ki: Table 4, in brackets under the IC50
T2 sequence (P08246 30-267): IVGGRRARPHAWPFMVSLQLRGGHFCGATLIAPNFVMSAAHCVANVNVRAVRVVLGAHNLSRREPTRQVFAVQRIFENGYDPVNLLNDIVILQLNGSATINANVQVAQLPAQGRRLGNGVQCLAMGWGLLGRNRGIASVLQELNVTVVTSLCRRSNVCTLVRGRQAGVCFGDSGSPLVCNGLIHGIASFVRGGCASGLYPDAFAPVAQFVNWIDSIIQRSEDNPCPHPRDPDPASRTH
Description: as §1, §2, §3

[3] = target: T3, Calpain I from human erythrocytes (Homo sapiens, UniProt P07384); assay: Calpain I inhibition, Suc-Leu-Tyr-AMC hydrolysis (KI); conditions: read-out: KI Cal I
T3 construct: Calpain I was purified from human erythrocytes; from tissue; host or cells: human erythrocytes
T3 sequence (P07384 1-714): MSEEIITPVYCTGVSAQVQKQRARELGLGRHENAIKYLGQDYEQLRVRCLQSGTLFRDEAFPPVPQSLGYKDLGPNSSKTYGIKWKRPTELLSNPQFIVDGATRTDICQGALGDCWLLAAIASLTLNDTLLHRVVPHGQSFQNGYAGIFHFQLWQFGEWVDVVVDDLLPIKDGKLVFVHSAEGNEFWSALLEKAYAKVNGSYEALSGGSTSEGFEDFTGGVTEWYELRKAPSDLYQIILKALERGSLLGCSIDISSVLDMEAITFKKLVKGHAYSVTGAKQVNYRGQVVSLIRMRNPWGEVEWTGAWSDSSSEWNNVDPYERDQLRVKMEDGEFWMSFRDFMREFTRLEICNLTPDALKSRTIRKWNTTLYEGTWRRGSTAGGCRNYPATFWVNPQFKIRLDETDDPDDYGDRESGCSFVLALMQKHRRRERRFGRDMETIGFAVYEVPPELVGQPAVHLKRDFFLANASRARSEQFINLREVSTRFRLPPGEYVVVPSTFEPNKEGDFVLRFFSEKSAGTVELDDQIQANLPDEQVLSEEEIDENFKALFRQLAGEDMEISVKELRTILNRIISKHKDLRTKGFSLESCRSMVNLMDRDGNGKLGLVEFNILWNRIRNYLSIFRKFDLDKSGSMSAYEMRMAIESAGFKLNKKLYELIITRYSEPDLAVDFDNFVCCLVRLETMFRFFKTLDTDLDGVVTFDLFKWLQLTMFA
T3 sequence (P04632 1-268 partner): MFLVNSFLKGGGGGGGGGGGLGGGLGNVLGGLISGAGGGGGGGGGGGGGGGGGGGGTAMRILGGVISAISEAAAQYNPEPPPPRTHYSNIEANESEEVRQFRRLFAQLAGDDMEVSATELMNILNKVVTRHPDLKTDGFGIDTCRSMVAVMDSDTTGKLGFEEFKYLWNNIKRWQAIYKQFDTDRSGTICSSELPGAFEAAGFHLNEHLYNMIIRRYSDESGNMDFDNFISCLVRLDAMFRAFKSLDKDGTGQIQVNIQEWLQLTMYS
Outline: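 Human erythrocyte calpain I and rabbit calpain II were followed by fluorimetric AMC release from Suc-Leu-Tyr-AMC at pH 8.0 (25 mM Tris, 10 mM CaCl2). Cathepsin B was run at pH 5.2 with 0.5 mM DTT on a p-nitroanilide substrate, or with Z-Arg-Arg-AFC (ex 400/em 505 nm). Enzyme was added last, and KI was taken from Dixon or Lineweaver-Burk analysis.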

[4] = target: calpain II from rabbit; assay: Calpain II inhibition, Suc-Leu-Tyr-AMC hydrolysis (KI); conditions: Table 1, Z-Leu--AA--CONHR; read-out: KI Cal II
Description: (§4) HEPES, heparin, and A23187 were obtained from Calbiochem. Suc-Leu-Tyr-AMC and chromogenic substrates were obtained from Sigma. Calpain I was purified from human erythrocytes according to the method of Kitahara (Kitahara et al., J. Biochem. 95, 1759-1766) omitting the Blue-Sepharose step. Calpain II from rabbit muscle and cathepsin B were purchased from Sigma. Papain was purchased from Calbiochem.
as §1
(§5) Calpain I from human erythrocytes and calpain II from rabbit were assayed using Suc-Leu-Tyr-AMC Sasaki et al., J. Biol. Chem. 259, 12489-12494 (1984); incorporated herein by reference!, and the AMC (7-amino-4-methylcoumarin) release was followed fluorimetrically (excitation at 380 nm, and emmision at 460 nm). Calpains were assayed in 25 mM Tris pH=8.0, 10 mM CaC12. Fluorescence was followed using a Gilson FL-1A fluorometer or a Perkin-Elmer 203 Fluorescence spectrometer. Cathepsin B was assayed in 20 mM sodium acetate pH=5.2, 0.5 mM dithiothreitol using Bz-Phe-Val-Arg-p-nitroanilide as substrate. Alternately, cathepsin B was assayed with Z-Arg-Arg-AFC Barrett and Kirschke, Methods Enzymol. 80, 535-561 (1981); incorporated herein by reference!, and the AFC (7-amino-4-trifluoromethylcoumarin) release was followed fluorimetrically (excitation at 400 nm and emmision at 505 nm). Papain was assayed in 100 mM KPO4, 1 mM EDTA, 2.5 mM cysteine pH=6.0 using Bz-Arg-AMC or Bz-Arg-NA Kanaoka et al., Chem. Pharm. Bull. 25, 3126-3128 (1977); incorporated herein by reference! as a substrate. The AMC (7-amino-4-methylcoumarin) release was followed fluorimetrically (excitation at 380 nm, and emmision at 460 nm). Enzymatic hydrolysis rates were measured at various substrate and inhibitor concentrations, and KI values were determined by either Lineweaver-Burk plots or Dixon plots.
as §2

[5] = target: T4, cathepsin B (Homo sapiens, UniProt P07858); assay: Cathepsin B inhibition (KI); conditions: Table 1, Z-Leu--AA--CONHR; read-out: KI Cat B
T4 construct: purchased Sigma
Description: as §4, §1, §5, §2

Compound	IC50 [1] [µM]	IC50 [2] [µM]	also measured
CC(C)C[C@H](NC(=O)OCc1ccccc1)C(=O)N[C@@H](Cc1ccccc1)C(=O)C(=O)NCC(O)c1ccc(OCc2ccccc2)c(OCc2ccccc2)c1 (stereo partly drawn) [Z-Leu-Phe-CONH-C6 H3 (3,4-(OCH2 Ph)2), Z-Leu-Phe-CONH--CH2 CH(OH)C6 H3 (3,4-(OCH2 Ph)2)]	66	22	
CCNC(=O)C(=O)[C@H](Cc1ccccc1)NC(=O)[C@H](CC(C)C)NC(=O)OCc1ccccc1 [Z-Leu-Phe-CONH-Et, Z-Leu-Phe-CO--NH-Et]	91	74	
CCCCCCCCCNC(=O)C(=O)C(CC)NC(=O)C(CC(C)C)NC(=O)OCc1ccccc1 (stereo not drawn) [Z-Leu-Abu-CONH-C9 H19]	150	78	
CC(C)CC(NC(=O)OCc1ccccc1)C(=O)NC(Cc1ccccc1)C(=O)C(=O)NCCc1ccccc1 (stereo not drawn) [Z-Leu-Phe-CONH-(CH2)2 Ph]	112	24	
CCC(NC(=O)C(CC(C)C)NC(=O)OCc1ccccc1)C(=O)C(=O)NCCCN1CCOCC1 (stereo not drawn) [Z-Leu-Abu-CONH-(CH2)3 -4-morpholinyl, Z-Leu-Abu-CONH--(CH2)3 -4-Morpholinyl]		> 217	Ki ([3]; Table 1, Z-Leu--AA--CONHR): 0.14 µM; Ki [4]: 0.041 µM; Ki [5]: 6.9 µM
CC(C)C[C@H](NC(=O)OCc1ccccc1)C(=O)N[C@@H](Cc1ccccc1)C(=O)C(N)=O [Z-Leu-Phe-CONH-H]	80	100	
CC(C)CC(NC(=O)OCc1ccccc1)C(=O)NC(Cc1ccccc1)C(=O)C(=O)NCC(O)c1ccc(OCc2ccccc2)cc1 (stereo not drawn) [Z-Leu-Phe-CONH--CH2 CH(OH)C6 H4 (4-OCH2 Ph)]	58	40	
CCCCNC(=O)C(=O)C(Cc1ccccc1)NC(=O)C(CC(C)C)NC(=O)OCc1ccccc1 (stereo not drawn) [Z-Leu-Phe-CONH-n-Bu]	68	16	Ki [1]: 4.9 µM; Ki [2]: 11 µM
CC[C@H](NC(=O)[C@H](CC(C)C)NC(=O)OCc1ccccc1)C(=O)C(=O)NCC(O)c1ccc(OCc2ccccc2)cc1 (stereo partly drawn) [Z-Leu-Abu-CONH--CH2 CH(OH)C6 H4 (4-OCH2 Ph)]	> 102		Ki ([3]; Table 2, Z-Leu--AA--CONH--CH2 CH(OH)-R): 0.08 µM
CCC(NC(=O)C(CC(C)C)NC(=O)OCc1ccccc1)C(=O)C(=O)NCC(C)C (stereo not drawn) [Z-Leu-Abu-CONH-i-Bu]	134	78	
CCCNC(=O)C(=O)C(CC)NC(=O)C(CC(C)C)NC(=O)OCc1ccccc1 (stereo not drawn) [Z-Leu-Abu-CONH-n-Pr]	> 217	> 120	
CCC(NC(=O)C(CC(C)C)NC(=O)OCc1ccccc1)C(=O)C(=O)NCc1ccco1 (stereo not drawn) [Z-Leu-Abu-CONH-CH2 -2-furyl, Z-Leu-Abu-CONH--CH2 -2-Furyl]		38	Ki ([3]; Table 1, Z-Leu--AA--CONHR): 0.8 µM; Ki [4]: 0.033 µM; Ki [5]: 6 µM
CC(C)CNC(=O)C(=O)C(Cc1ccccc1)NC(=O)C(CC(C)C)NC(=O)OCc1ccccc1 (stereo not drawn) [Z-Leu-Phe-CONH-i-Bu]	45	20	Ki [1]: 21 µM; Ki [2]: 10 µM

Continued, in another order:

IC50 [1] [µM]	IC50 [2] [µM]	Compound	also measured
> 102	32	Z-Leu-Phe-CONH--CH2 CH(OH)C6 H4 (4-OPh) [Z-Leu-Phe-CONH-CH2 CH(OH)-C6 H4 (4-OPh)]	
> 217	> 120	CCC(NC(=O)C(CC(C)C)NC(=O)OCc1ccccc1)C(=O)C(N)=O (stereo not drawn) [Z-Leu-Abu-CONH-H]	
63	40	CC(C)CC(NC(=O)OCc1ccccc1)C(=O)NC(Cc1ccccc1)C(=O)C(=O)NCc1ccccc1 (stereo not drawn) [Z-Leu-Phe-CONH-CH2 Ph]	
> 217	45	CCCCCCCCNC(=O)C(=O)C(CC)NC(=O)C(CC(C)C)NC(=O)OCc1ccccc1 (stereo not drawn) [Z-Leu-Abu-CONH-C8 H17]	
> 116	52	CCCCCCCNC(=O)C(=O)C(CC)NC(=O)C(CC(C)C)NC(=O)OCc1ccccc1 (stereo not drawn) [Z-Leu-Abu-CONH-C7 H15]	
128	50	CCC(C)NC(=O)C(=O)C(Cc1ccccc1)NC(=O)C(CC(C)C)NC(=O)OCc1ccccc1 (stereo not drawn) [Z-Leu-Phe-CONH-sec-Bu]	
148	63	CCCCNC(=O)C(=O)C(CC)NC(=O)C(CC(C)C)NC(=O)OCc1ccccc1 (stereo not drawn) [Z-Leu-Abu-CONH-n-Bu]	
65	44	CCCNC(=O)C(=O)C(Cc1ccccc1)NC(=O)C(CC(C)C)NC(=O)OCc1ccccc1 (stereo not drawn) [Z-Leu-Phe-CONH-n-Pr]	
